The results in this text go back to patent publication US8975259B2, “Compositions and methods for inhibiting G protein signaling” (University of Rochester, priority 2007, dated 2015).

For assay [1], the system named is carrageenan-induced paw edema in mice. Put plainly: Carrageenan-induced paw edema and neutrophil abundance. On the technique in general: In the carrageenan paw model, swelling and tenderness develop within hours.
Assay [2] concerns PI3Kγ. Kind of assay: Gβ1γ2-dependent activation of purified p101/p110 PI3Kγ. Format: biochemical. The conditions noted are these: Table 5; read-out: PI3Kγ IC50. On the procedure: Purified PLCβ2 (0.25 ng) was assayed in the presence (▴) or absence (▪) of 100 nM purified Gβ1γ2. […] Assays contained 10 ng of purified p101/p110 PI3Kγ heterodimer with or without 100 nM purified Gβ1γ2. Left panel: (▴) 100 nM Gβ1γ2 or (▪) no βγ. […] M119 or M201 and 25 nM purified GRK2 were added simultaneously to 250 nM biotinylated Gβ1γ2 (bGβ1γ2) immobilized on streptavidin agarose. GRK2 was detected with antibody to GRK2. Data are representative (mean ±SEM, except D) repeated at least three times each. […] 30 nM bGβ1γ2 was incubated with either 30 nM PLCβ2 or PLCβ3 in the presence or absence of M119 or M201 for 16 h at 4° C. before precipitation with avidin agarose and detection with PLCβ2,or Gβ antibodies. […] Same as 4E with PLCβ3.
Nevertheless, M119 and M201 were tested in in vitro reconstitution assays of Gβγ-dependent activation of PLCβ2, PLCβ3 and PI3Kγ and binding to GRK2. […] These are only two of multiple diverse compounds identified, indicating potential for multiple modes of Gβγ-dependent target modulation by these small molecules.

Take `COc1ccc2c(c1)c(CC(=O)O)c(C)n2C(=O)c1ccc(Cl)cc1` [indomethacin]: the “effect on carrageenan-induced paw edema” value in assay [1] (i.p. 1 h before carrageenan, gallein 100 mg/kg, indomethacin 2.5 mg/kg, result in words) is given as “sharply reduced”. Besides, the “reduction of exudate volume” value in assay [1] (i.p. pretreatment, 2 h after carrageenan) is reported as “approximately 75%”. As a reminder, the IC50 is the concentration needed to halve the response being measured. With `Nc1ccc(-c2ccc(Nc3cc(S(=O)(=O)O)c(N)c4c3C(=O)c3ccccc3C4=O)cc2)c(S(=O)(=O)O)c1` [drawing 65], the concentration for half-maximal inhibition (IC50) in assay [2] was 16 µM. Take `Nc1cccc(Nc2cc(S(=O)(=O)O)c(N)c3c2C(=O)c2ccccc2C3=O)c1` [drawing 64]: in assay [2], the IC50 came out at 6 µM.
